The values below come from PMC11420878, “Labeling of CC Chemokine Receptor 2 with a Versatile Intracellular Allosteric Probe” (ACS Chemical Biology, 2024).

Structures are written as SMILES.

What all share (type): binding
The target of assay [1] is T1, CC chemokine receptor 2 (CCR2) (Homo sapiens, UniProt P41597). As to the kind of experiment: [3H]CCR2-RA-[R] displacement, […] h preincubation; in-gel fluorescence labeling. Further details: CCR2 stably expressed in U2OS membranes; HA-CCR2 in HEK293T membranes.
For assay [2], the target named is T1, CC chemokine receptor 2 (CCR2). In words: [3H]CCR2-RA-[R] displacement (Ki shift), in-gel fluorescence labeling, pull-down proteomics. Set-up: CCR2 stably expressed in U2OS membranes; HA-CCR2 in HEK293T membranes.
Assay [3] shares this target. In words: [3H]CCR2-RA-[R] displacement, […] h preincubation. Set-up: CCR2 stably expressed in U2OS membranes.

T1 sequence (P41597 whole entry): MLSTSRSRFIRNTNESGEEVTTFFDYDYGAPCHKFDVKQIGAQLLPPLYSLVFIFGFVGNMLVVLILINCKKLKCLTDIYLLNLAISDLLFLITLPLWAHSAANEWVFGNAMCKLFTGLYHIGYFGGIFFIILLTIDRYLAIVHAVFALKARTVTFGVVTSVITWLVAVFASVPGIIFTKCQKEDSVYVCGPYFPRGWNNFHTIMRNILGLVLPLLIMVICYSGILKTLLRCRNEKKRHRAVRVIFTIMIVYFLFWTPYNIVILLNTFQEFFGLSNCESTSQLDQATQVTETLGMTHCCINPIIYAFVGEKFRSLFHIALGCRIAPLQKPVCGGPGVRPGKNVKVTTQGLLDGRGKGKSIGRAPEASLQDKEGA

For orientation: Ki means the equilibrium dissociation constant of an inhibitor or competing ligand from its target. Compound `C#CCOc1cc(NC(=O)C=C)ccc1Oc1ccc(Cl)cc1NS(=O)(=O)c1ccc(Cl)c(C(F)(F)F)c1` [6a] showed a Ki in assay [1] of around 0.5 nM.

In assay [1], `C#CCOCCOc1cc(NC(=O)C=C)ccc1Oc1ccc(Cl)cc1NS(=O)(=O)c1ccc(Cl)c(C(F)(F)F)c1` [6b] yielded a Ki of around 0.5 nM.

`C#CCOCCOCCOc1cc(NC(=O)C=C)ccc1Oc1ccc(Cl)cc1NS(=O)(=O)c1ccc(Cl)c(C(F)(F)F)c1` [6c, probe 6c]: in assay [2], the Ki is around 0.5 nM.

`C#CCOc1cc(NC(=O)CCSC#N)ccc1Oc1ccc(Cl)cc1NS(=O)(=O)c1ccc(Cl)c(C(F)(F)F)c1` [8a] had an inhibition constant (Ki) in assay [3] of around 1.3 nM.

In turn, `C#CCOCCOc1cc(NC(=O)CCSC#N)ccc1Oc1ccc(Cl)cc1NS(=O)(=O)c1ccc(Cl)c(C(F)(F)F)c1` [8b] showed an inhibition constant (Ki) in assay [3] of around 1.3 nM.

Regarding `C#CCOCCOCCOc1cc(NC(=O)CCSC#N)ccc1Oc1ccc(Cl)cc1NS(=O)(=O)c1ccc(Cl)c(C(F)(F)F)c1` [8c], the Ki in assay [3] is around 1.3 nM.
